Test results from US10280241B2, “Tackifier compounds and methods of using the same” (Iowa State University Research Foundation, Inc., priority 2012, dated 2019).

Experiments:
[1] = Water solubility of tackifiers; format: physicochemical
Excerpt: Altering the identity of the acid anhydride altered tackifier properties.

[2] = Glass transition temperature by DSC; format: physicochemical; details: measured by DSC
Description: Tack was measured by modifications to the […] standard. On an Instron® load frame, the tackifier to be tested was applied to a glass slide at a thickness of 0.1 mm. The slide was then clamped to a flat surface and, perpendicularly, a type 304 stainless steel probe measuring 5 mm in diameter, with a 90° polished tip was place above the slide. The probe was then lowered at a rate of 0.5 mm sec^−1 and contacted the surface at an average force of 1.5 N. The probe was then held on the surface for 1.0 sec and then raised at a rate of 0.5 mm sec^−1. Tack was measured as the maximum force required to remove the probe from the surface of the tackifier. Tg was measured by DSC.

Row | Water solubility (in words) [1] | Tg [2] [°C] | SMILES
1 | substantially water-soluble | −2 | O=C(O)CCC(=O)OC1COC2C(OC(=O)CCC(=O)O)COC12 (stereo not shown) [3a]
2 | substantially water-insoluble | −24 | O=C(O)CCCC(=O)O[C@H]1CO[C@H]2[C@@H]1OC[C@H]2OC(=O)CCCC(=O)O [3b]
3 | – | 16 | O=C(O)C=CC(=O)O[C@H]1CO[C@H]2[C@@H]1OC[C@H]2OC(=O)C=CC(=O)O [3c]
4 | – | −2 | O=C(O)CCC(=O)O[C@@H]1CO[C@H]2[C@@H]1OC[C@H]2OC(=O)CCC(=O)O [5a]
5 | – | −26 | O=C(O)CCCC(=O)O[C@@H]1CO[C@H]2[C@@H]1OC[C@H]2OC(=O)CCCC(=O)O [5b]
